Experimental data reported in patent USRE47689E1, “Compounds for treating spinal muscular atrophy” (PTC Therapeutics, Inc., priority 2011, dated 2019).

Tested on: SMN2 minigene (full length SMN2 minigene mRNA containing SMN2 exon 7)
Experiment: SMN2 minigene mRNA splicing RT-qPCR assay in cultured cells
Assay type: cell-based, human
Settings: for exon 7 inclusion / SMN2mini FL mRNA relative to vehicle control: HEK293H cells with SMN2-A minigene; for exon 7 inclusion: relative to untreated cells; for SMN2mini FL mRNA relative to vehicle control: rising concentrations, 24 hr; for EC (1.5-fold): Homo sapiens, HEK293-H, HEK293H cells stably transfected with SMN2-A minigene, 24 hours, 7-point concentration curve, 1.5-fold relative to vehicle-treated cells, read-out: EC1.5x for production of full length SMN2 mRNA
In short: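 HEK293H cells stably carrying the SMN2-A minigene treated 24 h at 37° C with compound (DMSO, 200× stock), then lysed. Multiplex RT-qPCR (SMN primers 0.4 μM final; 40 cycles) measures full-length exon 7-containing minigene mRNA, normalized to GAPDH and to vehicle; EC1.5x derived and binned by stars.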

## CC(C)NCCc1ccc2cc(-c3nc4c(Cl)cccc4s3)c(=O)oc2c1 [Cpd 35, 3-(4-chloro-1,3-benzothiazol-2-yl)-7-[2-(propan-2-ylamino)ethyl]-2H-chromen-2-one]
  exon 7 inclusion: fully restored exon 7 inclusion relative to untreated cells
  SMN2mini FL mRNA relative to vehicle control: increased SMN2mini FL mRNA at low concentrations
  EC (1.5-fold): 0.3 to 1 µM

## CCN1CCN(c2ccc3cc(-c4cn5cc(C)nc(C)c5n4)c(=O)oc3c2)C[C@@H]1C [Cpd 626, 3-(6,8-dimethylimidazo[1,2-a]pyrazin-2-yl)-7-[(3S)-4-ethyl-3-methylpiperazin-1-yl]-2H-chromen-2-one]
  exon 7 inclusion: fully restored exon 7 inclusion relative to untreated cells
  SMN2mini FL mRNA relative to vehicle control: increased SMN2mini FL mRNA at low concentrations
  EC (1.5-fold): < 0.1 µM
